Reference: ChEMBL document CHEMBL4765295, “Synthesis, pharmacological profile and 2D-QSAR studies of curcumin-amino acid conjugates as potential drug candidates” (Eur J Med Chem, 2020)
Several values for one entry are separate records, joined by “and”; a condition that tells them apart may be missing. Equal values may be shown once.

Legend:
Rattus norvegicus [1] = test: Anti-inflammatory activity in Wistar rat assessed as inhibition of carrageenan-induced paw edema at 10 mg/kg, ip pretreated for 1 hr followed by carrageenan challenge and measured after 4 hr relative to control (reference value: 0.00 +/-0.4 %); format: functional; details: time 5 hrs
Streptococcus pyogenes = test: Antibacterial activity against Streptococcus pyogenes ATCC 19615 incubated for 18 hrs by agar dilution method; format: functional
Peritoneal macrophage [2] = test: Antiinflammatory activity in […] mouse Peritoneal macrophages assessed as inhibition of LPS-induced NO production at 10 uM preincubated for 1 hr followed by LPS stimulation measured after 24 hrs by Griess method relative to control (reference value: 0.0 %); format: functional; design: scale not given: the % may be the effect or the level left; details: time 25 hrs
Mus musculus [3] = test: Analgesic activity in albino mouse assessed as forepaw licking/jumping latency time at 10 mg/kg, ip measured after 90 mins by hot plate test (reference value: 2.72 +/- 0.01 sec); format: functional; details: 1.5 h
Rattus norvegicus [4] = test: Anti-inflammatory activity in Wistar rat assessed as inhibition of carrageenan-induced paw edema at 10 mg/kg, ip pretreated for 1 hr followed by carrageenan challenge and measured after 4 hr relative to indomethacin; format: functional; details: time 5 hrs
Splenocyte [5] = test: Immunomodulatory activity in Swiss albino mouse splenocytes assessed as cell viability at 10 uM by measuring stimulation index incubated for 72 hrs in presence of mitogenic stimulus phytohaemagglutinin by MTT assay (reference value: 1.00 +/- 0.24); format: functional
Mus musculus [6] = test: Analgesic activity in albino mouse assessed as protection at 10 mg/kg, ip measured after 90 mins by hot plate test (reference value: 0 %); format: functional; details: 1.5 h
[7] = Ulcerogenic activity in fasted albino mouse assessed as average number of ulcers in gastric mucosa at 10 mg/kg, po for 3 days (reference value: 0); format: toxicity, organism-based; details: in vivo, 72 h, time 3 day
Rattus norvegicus [8] = test: Anti-inflammatory activity in Wistar rat assessed as inhibition of carrageenan-induced paw edema at 10 mg/kg, ip pretreated for 1 hr followed by carrageenan challenge and measured after 3 hr relative to control (reference value: 0.00 +/-0.1 %); format: functional; details: time 4 hrs
Splenocyte [9] = test: Immunomodulatory activity in Swiss albino mouse splenocytes assessed as cell viability at 10 uM by measuring inhibition of stimulation index incubated for 72 hrs in presence of mitogenic stimulus phytohaemagglutinin by MTT assay relative to indomethacin; format: functional; details: read-out: Activity
Mus musculus [10] = test: Analgesic activity in albino mouse assessed as protection at 10 mg/kg, ip measured after 30 mins by hot plate test (reference value: 0 %); format: functional; details: 0.5 h
Mus musculus [11] = test: Analgesic activity in albino mouse assessed as forepaw licking/jumping latency time at 10 mg/kg, ip measured after 30 mins by hot plate test (reference value: 5.02 +/- 0.09 sec); format: functional; details: 0.5 h
[12] = Ulcerogenic activity in fasted albino mouse assessed as average severity of ulcers in gastric mucosa at 10 mg/kg, po for 3 days (reference value: 0); format: toxicity, organism-based; details: in vivo, 72 h, time 3 day
[13] = Toxicity in albino mouse assessed as induction of toxic symptoms at 50 to 100 mg/kg, ip measured after 24 hrs; format: organism-based; details: in vivo, dose 50-100 mg/kg
Rattus norvegicus [14] = test: Anti-inflammatory activity in Wistar rat assessed as inhibition of carrageenan-induced paw edema at 10 mg/kg, ip pretreated for 1 hr followed by carrageenan challenge and measured after 2 hr relative to control (reference value: 0.00 +/-0.03 %); format: functional; details: time 3 hrs
Salmonella typhimurium = test: Antibacterial activity against Salmonella typhimurium ATCC 19430 incubated for 18 hrs by agar dilution assay; format: functional, Salmonella enterica subsp. enterica serovar Typhimurium; details: Salmonella enterica
Rattus norvegicus [15] = test: Antiinflammatory activity in Wistar rat model of carrageenan-induced paw edema assessed as reduction in thickness of paw edema at 10 mg/kg, ip pretreated for 1 hr followed by carrageenan challenge and measured after 4 hrs (reference value: 1.40 +/-0.10 mm); format: functional; details: time 5 hrs
Mus musculus [16] = test: Analgesic activity in albino mouse assessed protection against acetic acid-induced abdominal writhing at 10 mg/kg, ip pretreated for 1 hr followed by acetic acid challenge and measured starting 5 mins post acetic acid challenge for 10 mins relative to control (reference value: 0 %); format: functional; details: time 75 min, 1.25 h
Mus musculus [17] = test: Analgesic activity in albino mouse assessed as protection at 10 mg/kg, ip measured after 120 mins by hot plate test (reference value: 0 %); format: functional; details: 2 h
Rattus norvegicus [18] = test: Antiinflammatory activity in Wistar rat model of carrageenan-induced paw edema assessed as reduction in thickness of paw edema at 10 mg/kg, ip pretreated for 1 hr followed by carrageenan challenge and measured after 24 hrs (reference value: 0.83 +/-0.08 mm); format: functional; details: time 25 hrs
Rattus norvegicus [19] = test: Antiinflammatory activity in Wistar rat model of carrageenan-induced paw edema assessed as reduction in thickness of paw edema at 10 mg/kg, ip pretreated for 1 hr followed by carrageenan challenge and measured after 2 hrs (reference value: 2.06 +/-0.09 mm); format: functional; details: time 3 hrs
Mus musculus [20] = test: Analgesic activity in albino mouse assessed as forepaw licking/jumping latency time at 10 mg/kg, ip measured after 60 mins by hot plate test (reference value: 3.42 +/- 0.03 sec); format: functional; details: 1 h
[21] = Ulcerogenic activity in fasted albino mouse assessed as incidence of gastric ulceration at 10 mg/kg, po for 3 days (reference value: 0 %); format: toxicity, organism-based; details: in vivo, 72 h, time 3 day
[22] = Ulcerogenic activity in fasted albino mouse assessed as ulcer index in gastric mucosa at 10 mg/kg, po for 3 days (reference value: 0); format: toxicity, organism-based; details: in vivo, 72 h, time 3 day
Rattus norvegicus [23] = test: Anti-inflammatory activity in Wistar rat assessed as inhibition of carrageenan-induced paw edema at 10 mg/kg, ip pretreated for 1 hr followed by carrageenan challenge and measured after 1 hr relative to control (reference value: 0.00 +/-0.02 %); format: functional; details: time 2 hrs
Mus musculus [24] = test: Analgesic activity in albino mouse assessed protection against acetic acid-induced abdominal writhing at 10 mg/kg, ip pretreated for 1 hr followed by acetic acid challenge and measured starting 5 mins post acetic acid challenge for 10 mins relative to indomethacin; format: functional; details: time 75 min, 1.25 h
Mus musculus [25] = test: Analgesic activity in albino mouse assessed reduction in acetic acid-induced abdominal writhing by measuring writing reflex at 10 mg/kg, ip pretreated for 1 hr followed by acetic acid challenge and measured starting 5 mins post acetic acid challenge for 10 mins (reference value: 42.4 +/- 1.02); format: functional; details: time 75 min, 1.25 h
Candida albicans = test: Antifungal activity against Candida albicans incubated for 18 to 24 hrs by CLSI method; format: functional; details: time 18-24 hrs
Rattus norvegicus [26] = test: Anti-inflammatory activity in Wistar rat assessed as inhibition of carrageenan-induced paw edema at 10 mg/kg, ip pretreated for 1 hr followed by carrageenan challenge and measured after 24 hr relative to control (reference value: 0.00 +/-0.3 %); format: functional; details: time 25 hrs
Pseudomonas aeruginosa = test: Antibacterial activity against Pseudomonas aeruginosa ATCC 27853 incubated for 18 hrs by agar dilution assay; format: functional
Peritoneal macrophage [27] = test: Antiinflammatory activity in […] mouse Peritoneal macrophages assessed as reduction in LPS-induced NO production by measuring reduction in stimulation index at 10 uM preincubated for 1 hr followed by LPS stimulation measured after 24 hrs by Griess method (reference value: 27.31 +/- 2.56 uM); format: functional; details: time 25 hrs
Mus musculus [28] = test: Analgesic activity in albino mouse assessed as protection at 10 mg/kg, ip measured after 120 mins by hot plate test relative to indomethacin; format: functional; details: 2 h
Rattus norvegicus [29] = test: Antiinflammatory activity in Wistar rat model of carrageenan-induced paw edema assessed as reduction in thickness of paw edema at 10 mg/kg, ip pretreated for 1 hr followed by carrageenan challenge and measured after 3 hrs (reference value: 1.79 +/-0.07 mm); format: functional; details: time 4 hrs
Staphylococcus aureus = test: Antibacterial activity against Staphylococcus aureus ATCC 25923 incubated for 18 hrs by agar dilution method; format: functional
Mus musculus [30] = test: Analgesic activity in albino mouse assessed as protection at 10 mg/kg, ip measured after 60 mins by hot plate test (reference value: 0 %); format: functional; details: 1 h
Rattus norvegicus [31] = test: Antiinflammatory activity in Wistar rat model of carrageenan-induced paw edema assessed as reduction in thickness of paw edema at 10 mg/kg, ip pretreated for 1 hr followed by carrageenan challenge and measured after 1 hr (reference value: 2.41 +/-0.05 mm); format: functional; details: time 1 hr after carrageenan
Mus musculus [32] = test: Analgesic activity in albino mouse assessed as forepaw licking/jumping latency time at 10 mg/kg, ip measured after 120 mins by hot plate test (reference value: 2.62 +/- 0.06 sec); format: functional; details: 2 h

Row | SMILES | inhibition in vivo at 10 mg/kg (Rattus norvegicus [1]) | MIC (Streptococcus pyogenes) | Activity (Peritoneal macrophage [2]) | Time (Mus musculus [3]) | inhibition in vivo at 10 mg/kg (Rattus norvegicus [4]) | Activity_index (Splenocyte [5]) | Activity (Mus musculus [6]) | Activity [7] | inhibition in vivo at 10 mg/kg (Rattus norvegicus [8]) | viability at 10 µM (Splenocyte [9]) | Activity (Mus musculus [10]) | Time (Mus musculus [11]) | Activity [12] | Activity [13] | inhibition in vivo at 10 mg/kg (Rattus norvegicus [14]) | MIC (Salmonella typhimurium) | Activity (Rattus norvegicus [15]) | Activity (Mus musculus [16]) | Activity (Mus musculus [17]) | Activity (Rattus norvegicus [18]) | also measured
1 | COc1cc(/C=C/C(=O)/C=C(O)/C=C/c2ccc(OC(=O)[C@H](CCSC)NC(=O)OCC3c4ccccc4-c4ccccc43)c(OC)c2)ccc1OC(=O)[C@H](CCSC)NC(=O)OCC1c2ccccc2-c2ccccc21 | 98% | 0.125 µg/mL and 0.116 µM | 47.91% | 3.38 s | 113% | 1.07 | 24.3% | 0 | 75% | 113% | 35.9% | 6.82 s | 0 | Non-Toxic | 73% | 2 µg/mL and 1.86 µM | 0.03 mm | 61.8% | 13.7% | 0.64 mm | Activity (Rattus norvegicus [19]): 0.56 mm; Time (Mus musculus [20]): 5.02 s; Activity [21]: 0%; UI [22]: 0; inhibition in vivo at 10 mg/kg (Rattus norvegicus [23]): 46%; Activity (Mus musculus [24]): 100.3%; Activity (Mus musculus [25]): 16.2; MIC (Candida albicans): 0.5 µg/mL and 0.465 µM; inhibition in vivo at 10 mg/kg (Rattus norvegicus [26]): 23%; MIC (Pseudomonas aeruginosa): 2 µg/mL and 1.86 µM; Activity (Peritoneal macrophage [27]): 14.23 µM; Activity (Mus musculus [28]): 32.6%; Activity (Rattus norvegicus [29]): 0.45 mm; MIC (Staphylococcus aureus): 0.25 µg/mL and 0.233 µM; Activity (Mus musculus [30]): 46.8%; Activity (Rattus norvegicus [31]): 1.3 mm; Time (Mus musculus [32]): 2.98 s
2 | COc1cc(/C=C/C(=O)/C=C(O)/C=C/c2ccc(OC(=O)[C@@H](CCSC)NC(=O)OCc3ccccc3)c(OC)c2)ccc1OC(=O)[C@@H](CCSC)NC(=O)OCc1ccccc1 | 94% | 0.125 µg/mL and 0.139 µM | 40.84% | 4.88 s | 108% | 1.37 | 79.4% | 0 | 85% | 88.5% | 9.2% | 5.48 s | 0 | Non-Toxic | 80% | 0.5 µg/mL and 0.556 µM | 0.08 mm | 17.9% | 78.6% | 0.08 mm | Activity (Rattus norvegicus [19]): 0.41 mm; Time (Mus musculus [20]): 5.44 s; Activity [21]: 0%; UI [22]: 0; inhibition in vivo at 10 mg/kg (Rattus norvegicus [23]): 79%; Activity (Mus musculus [24]): 29.1%; Activity (Mus musculus [25]): 34.8; MIC (Candida albicans): 0.125 µg/mL and 0.139 µM; inhibition in vivo at 10 mg/kg (Rattus norvegicus [26]): 90%; MIC (Pseudomonas aeruginosa): 1 µg/mL and 1.11 µM; Activity (Peritoneal macrophage [27]): 16.16 µM; Activity (Mus musculus [28]): 187.1%; Activity (Rattus norvegicus [29]): 0.27 mm; MIC (Staphylococcus aureus): 0.125 µg/mL and 0.139 µM; Activity (Mus musculus [30]): 59.1%; Activity (Rattus norvegicus [31]): 0.51 mm; Time (Mus musculus [32]): 4.68 s
